Assay results published in patent publication US7229993B2, “Aryl substituted pyrimidines and the use thereof” (Euro-Celtique S.A., priority 2002, dated 2007).

Molecular target: rBIIa/beta 1 sodium channels expressed in Xenopus oocytes (Rattus norvegicus, UniProt P04775)
Experiment: Electrophysiological assay (two-electrode voltage clamp), sodium channel inhibition, inactivated state
Format: cell-based
Details: apparent Ki from single point inhibition data; rat brain type IIa/beta 1 channels in Xenopus oocytes; test pulse after 4 second depolarization from -120 mV holding potential; read-out: Ki (inhibition constant for sodium channel inhibition)
Method: An electrophysiological assay was used to measure potencies of compounds of the present invention rBIIa/beta 1 sodium channels expressed in Xenopus oocytes.
Preparation of cRNA encoding cloned rat brain type IIa (rBIIa) and beta 1 (β1): cDNA clones encoding the rat brain beta 1 subunit are cloned in house using standard methods, and mRNA are prepared by standard methods. mRNA encoding rBIIa is provided by Dr. A. Golden (UC Irvine). The mRNAs are diluted and stored at −80° C. in 1 μL aliquots until injection.
Preparation of oocytes: Mature female Xenopus laevis are anaesthetized (20–40 min) using 0.15% 3-aminobenzoic acid ethyl ester (MS-222) following established procedures (Woodward, R. M., et al., Mol. Pharmacol. 41:89–103 (1992)).
Two to six ovarian lobes are surgically removed. Oocytes at developmental stages V–VI are dissected from the ovary, wherein the oocytes are still surrounded by enveloping ovarian tissues. Oocytes are defolliculated on the day of surgery by treatment with collagenase (0.5 mg/mL Sigma Type I, or Boehringer Mannheim Type A, for 0.5–1 hr). Treated oocytes are vortexed to dislodge epithelia, washed repeatedly and stored in Barth's medium containing 88 mM NaCl, 1 mM KCl, 0.41 mM CaCl2, 0.33 mM Ca(NO3)2, 0.82 mM MgSO4, 2.4 mM NaHCO3, 5 mM HEPES, pH 7.4 adjusted with 0.1 mg/mL gentamycin sulphate.
Micro-injection of oocytes: Defolliculated oocytes are micro-injected using a Nanoject injection system (Drummond Scientific Co., Broomall, Pa.). Injection pipettes are beveled to minimize clogging. Tip diameter of injection pipettes is 15–35 μm. Oocytes are microinjected with approximately 50 nL 1:10 ratio mixtures of cRNAs for rBIIa and beta 1 respectively.
Electrophysiology: Membrane current responses are recorded in frog Ringer solution containing 115 mM NaCl, 2 mM KCl, 1.8 mM CaCl2, 5 mM HEPES, pH 7.4. Electrical recordings are made using a conventional two-electrode voltage clamp (Dagan TEV-200) over periods ranging between 1–7 days following injection. The recording chamber is a simple gravity fed flow-through chamber (volume […] depending on adjustment of aspirator). Oocytes are placed in the recording chamber, impaled with electrodes and continuously perfused (5–15 mL min^−1) with frog Ringer's solution. […]
Voltage protocols for evoking sodium channel currents: The standard holding potential for whole oocyte clamp is −120 mV. […] Peak currents are measured as the maximum negative current after depolarizing voltage steps. […]
The purpose is to find compounds that are state dependent modifiers of neuronal sodium channels. […] Sodium currents are measured at this test pulse before and after the application of the tested compound. Data is acquired using PCLAMP 8.0 software and analyzed with CLAMPFIT software (Axon instruments). […]

rBIIa/beta 1 sodium channels expressed in Xenopus oocytes, sequence (P04775 whole entry): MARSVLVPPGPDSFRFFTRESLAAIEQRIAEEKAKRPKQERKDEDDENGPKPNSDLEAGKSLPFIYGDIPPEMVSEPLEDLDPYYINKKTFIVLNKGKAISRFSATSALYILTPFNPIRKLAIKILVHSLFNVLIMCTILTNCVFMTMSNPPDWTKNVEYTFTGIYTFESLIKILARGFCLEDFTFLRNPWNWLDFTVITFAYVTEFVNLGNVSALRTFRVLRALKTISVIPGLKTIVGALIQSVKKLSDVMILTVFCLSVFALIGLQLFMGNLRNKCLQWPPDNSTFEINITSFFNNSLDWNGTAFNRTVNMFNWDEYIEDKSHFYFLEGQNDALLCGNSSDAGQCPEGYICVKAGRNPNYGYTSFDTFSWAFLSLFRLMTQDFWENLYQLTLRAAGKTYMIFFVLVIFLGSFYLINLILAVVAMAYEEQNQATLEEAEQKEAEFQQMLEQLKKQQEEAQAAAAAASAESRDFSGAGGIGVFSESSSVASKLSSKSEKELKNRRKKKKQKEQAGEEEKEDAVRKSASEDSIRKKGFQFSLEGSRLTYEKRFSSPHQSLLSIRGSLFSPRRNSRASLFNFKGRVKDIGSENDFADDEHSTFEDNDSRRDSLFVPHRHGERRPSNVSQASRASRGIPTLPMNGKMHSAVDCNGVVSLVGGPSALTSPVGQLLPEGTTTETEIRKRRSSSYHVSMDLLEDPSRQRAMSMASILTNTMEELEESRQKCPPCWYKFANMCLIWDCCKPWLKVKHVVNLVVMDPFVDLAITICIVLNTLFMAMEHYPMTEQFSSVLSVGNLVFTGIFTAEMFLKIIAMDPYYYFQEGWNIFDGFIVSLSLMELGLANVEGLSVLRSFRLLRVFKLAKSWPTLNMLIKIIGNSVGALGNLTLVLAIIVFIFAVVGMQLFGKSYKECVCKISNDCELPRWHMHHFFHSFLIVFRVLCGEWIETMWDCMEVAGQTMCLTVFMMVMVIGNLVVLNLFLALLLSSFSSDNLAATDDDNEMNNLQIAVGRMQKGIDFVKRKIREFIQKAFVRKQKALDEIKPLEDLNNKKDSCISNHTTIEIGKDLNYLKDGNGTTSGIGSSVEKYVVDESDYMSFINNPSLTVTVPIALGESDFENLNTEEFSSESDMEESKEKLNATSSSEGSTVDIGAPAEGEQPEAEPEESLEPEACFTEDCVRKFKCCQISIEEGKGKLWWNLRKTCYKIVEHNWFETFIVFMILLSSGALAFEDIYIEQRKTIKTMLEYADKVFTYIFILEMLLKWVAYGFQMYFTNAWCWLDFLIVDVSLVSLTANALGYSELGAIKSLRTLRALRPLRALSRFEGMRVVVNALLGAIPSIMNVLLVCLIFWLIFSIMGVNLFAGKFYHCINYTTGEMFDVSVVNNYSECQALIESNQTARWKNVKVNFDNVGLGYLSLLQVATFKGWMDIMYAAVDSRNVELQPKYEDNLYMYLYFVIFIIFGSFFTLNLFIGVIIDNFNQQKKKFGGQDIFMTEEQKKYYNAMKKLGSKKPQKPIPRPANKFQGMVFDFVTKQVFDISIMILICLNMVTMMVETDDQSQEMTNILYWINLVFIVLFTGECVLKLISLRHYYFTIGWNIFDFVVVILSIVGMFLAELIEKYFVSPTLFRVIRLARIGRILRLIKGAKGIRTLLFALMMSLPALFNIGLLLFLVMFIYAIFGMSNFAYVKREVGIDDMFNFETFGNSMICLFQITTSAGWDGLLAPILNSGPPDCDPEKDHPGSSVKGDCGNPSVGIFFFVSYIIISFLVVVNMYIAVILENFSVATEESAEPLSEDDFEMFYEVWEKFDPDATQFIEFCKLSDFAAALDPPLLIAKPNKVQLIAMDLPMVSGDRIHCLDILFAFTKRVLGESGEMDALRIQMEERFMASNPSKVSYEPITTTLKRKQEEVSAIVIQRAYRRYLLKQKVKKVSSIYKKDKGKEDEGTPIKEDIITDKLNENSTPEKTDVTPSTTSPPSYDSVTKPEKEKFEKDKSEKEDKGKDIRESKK
rBIIa/beta 1 sodium channels expressed in Xenopus oocytes, sequence (Q00954 19-218 partner): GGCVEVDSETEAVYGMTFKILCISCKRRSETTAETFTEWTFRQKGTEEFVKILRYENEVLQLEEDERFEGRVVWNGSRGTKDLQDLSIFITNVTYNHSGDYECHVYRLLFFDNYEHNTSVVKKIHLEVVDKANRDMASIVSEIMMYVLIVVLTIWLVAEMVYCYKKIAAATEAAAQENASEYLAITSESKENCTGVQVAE

Compound	Ki [µM]
2-(4-(4-fluorophenoxy)phenyl)-4-tert-butyl-6-aminopyrimidin-4-one	15.6
Nc1nc(-c2ccc(Oc3ccc(F)cc3)cc2)[nH]c(=O)c1Cc1ccccc1Cl [2-(4-(4-fluorophenoxy)phenyl)-6-amino-5-(2-chlorobenzyl)pyrimidin-4-one]	30.9
Nc1nc(-c2ccccc2)[nH]c(=O)c1Cc1ccccc1Cl [2-phenyl-6-amino-5-(2-chlorobenzyl)pyrimidin-4-one]	49.2
Nc1cc(=O)[nH]c(-c2ccc(Oc3ccc(F)cc3)cc2)n1 [2-(4-(4-fluorophenoxy)phenyl)-6-amino-pyrimidin-4-one]	0.47
